Laboratory results published in PubChem BioAssay (NCI).
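GI50 is the concentration that inhibits growth by half. TGI denotes the concentration required for complete inhibition of growth.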

Legend:
Assay in all cases: growth of human tumour cells (NCI), 384-well format
[1] = test system: CAKI-1 renal
[2] = test system: MALME-3M melanoma
[3] = test system: A498 renal
[4] = test system: OVCAR-8 ovarian
[5] = test system: LOX IMVI melanoma
[6] = test system: UO-31 renal
[7] = test system: PC-3 prostate
[8] = test system: MDA-MB-468 breast
[9] = test system: MDA-MB-435 melanoma
[10] = test system: NCI-H522 lung
[11] = test system: NCI-H226 lung
[12] = test system: NCI-H23 lung
[13] = test system: MOLT-4 leukemia
[14] = test system: SK-MEL-28 melanoma
[15] = test system: NCI/ADR-RES ovarian
[16] = test system: K-562 leukemia
[17] = test system: MDA-MB-231 breast
[18] = test system: KM12 colon
[19] = test system: U251 glioblastoma
[20] = test system: HT29 colon
[21] = test system: A549 NSCLC
[22] = test system: ACHN renal
[23] = test system: HOP-92 NSCLC
[24] = test system: SK-MEL-5 melanoma
[25] = test system: SW-620 colon
[26] = test system: SNB-19 CNS
[27] = test system: CCRF-CEM leukemia
[28] = test system: SF-295 CNS
[29] = test system: SF-268 CNS
[30] = test system: RPMI-8226 leukemia
[31] = test system: COLO 205 colon
[32] = test system: NCI-H322M lung
[33] = test system: UACC-62 melanoma
[34] = test system: TK-10 renal
[35] = test system: 786-0 renal
[36] = test system: OVCAR-5 ovarian
[37] = test system: SN12C renal
[38] = test system: SF-539 CNS
[39] = test system: EKVX NSCLC
[40] = test system: IGROV1 ovarian
[41] = test system: OVCAR-4 ovarian
[42] = test system: UACC-257 melanoma
[43] = test system: SK-OV-3 ovarian
[44] = test system: HCT-15 colon
[45] = test system: DU-145 prostate
[46] = test system: HOP-62 NSCLC
[47] = test system: SNB-75 CNS
[48] = test system: BT-549 breast
[49] = test system: OVCAR-3 ovarian
[50] = test system: RXF 393 renal
[51] = test system: M14 melanoma
[52] = test system: SR leukemia
[53] = test system: HCC-2998 colon
[54] = test system: NCI-H460 NSCLC
[55] = test system: HL-60(TB) leukemia
[56] = test system: HS 578T breast
[57] = test system: MCF7 breast
[58] = test system: T-47D breast

CN(C)CC(=O)N1CCC(c2ccc(NC(=O)c3ncc(C#N)[nH]3)c(C3=CCCCC3)c2)CC1
GI50 [1]: 4.11 µM | TGI [1]: 14.9 µM | GI50 [2]: 1.66 µM | TGI [2]: 3.57 µM | GI50 [3]: 2.04 µM | TGI [3]: 3.91 µM | GI50 [4]: 10.6 µM | TGI [4]: 22.4 µM | GI50 [5]: 3.32 µM | TGI [5]: 10.6 µM | GI50 [6]: 12.1 µM | TGI [6]: 24.7 µM | GI50 [7]: 5.35 µM | TGI [7]: 17.3 µM | GI50 [8]: 4.3 µM | TGI [8]: 9.35 µM | GI50 [9]: 3 µM | TGI [9]: 9.64 µM | GI50 [10]: 10.6 µM | TGI [10]: 22.4 µM | GI50 [11]: 3.85 µM | TGI [11]: 14.2 µM | GI50 [12]: 2.93 µM | TGI [12]: 10.7 µM | GI50 [13]: 2.61 µM | TGI [13]: 7.17 µM | GI50 [14]: 1.8 µM | TGI [14]: 3.28 µM | GI50 [15]: 15.7 µM | TGI [15]: 29.1 µM | GI50 [16]: 2.97 µM | TGI [16]: 11.3 µM | GI50 [17]: 6.96 µM | TGI [17]: 19.2 µM | GI50 [18]: 0.141 µM | TGI [18]: 3.52 µM | GI50 [19]: 5.48 µM | TGI [19]: 17.6 µM | GI50 [20]: 1.71 µM | TGI [20]: 3.26 µM | GI50 [21]: 4.25 µM | TGI [21]: 14.8 µM | GI50 [22]: 7.59 µM | TGI [22]: 20 µM | GI50 [23]: 1.43 µM | TGI [23]: 10.8 µM | GI50 [24]: 1.7 µM | TGI [24]: 4.34 µM | GI50 [25]: 10.4 µM | TGI [25]: 22.2 µM | GI50 [26]: 9.85 µM | TGI [26]: 21.5 µM | GI50 [27]: 3.27 µM | TGI [27]: 10.7 µM | GI50 [28]: 3.47 µM | TGI [28]: 11.3 µM | GI50 [29]: 6.84 µM | TGI [29]: 19.4 µM | GI50 [30]: 4.07 µM | TGI [30]: 15.3 µM | GI50 [31]: 3.56 µM | TGI [31]: 11.7 µM | GI50 [32]: 7.63 µM | TGI [32]: 20.1 µM | GI50 [33]: 1.87 µM | TGI [33]: 3.6 µM | GI50 [34]: 8.66 µM | TGI [34]: 20.8 µM | GI50 [35]: 1.93 µM | TGI [35]: 4.41 µM | GI50 [36]: 4.13 µM | TGI [36]: 13.8 µM | GI50 [37]: 1.51 µM | TGI [37]: 13 µM | GI50 [38]: 3.02 µM | TGI [38]: 13 µM | GI50 [39]: 12.5 µM | TGI [39]: 25 µM | GI50 [40]: 10.3 µM | TGI [40]: 22 µM | GI50 [41]: 15.5 µM | TGI [41]: 28.9 µM | GI50 [42]: 1.98 µM | TGI [42]: 3.52 µM | GI50 [43]: 3.62 µM | TGI [43]: 13.3 µM | GI50 [44]: 1.82 µM | TGI [44]: 3.58 µM | GI50 [45]: 10.4 µM | TGI [45]: 22.2 µM | GI50 [46]: 4.18 µM | TGI [46]: 14.8 µM | GI50 [47]: 4.4 µM | TGI [47]: 15.6 µM | GI50 [48]: 2.4 µM | TGI [48]: 9.81 µM | GI50 [49]: 10.6 µM | TGI [49]: 22.4 µM | GI50 [50]: 5.03 µM | TGI [50]: 17.2 µM | GI50 [51]: 1.89 µM | TGI [51]: 3.71 µM | GI50 [52]: 2.44 µM | TGI [52]: 5.54 µM | GI50 [53]: 2.48 µM | TGI [53]: 5.33 µM | GI50 [54]: 5.42 µM | TGI [54]: 16.8 µM | GI50 [55]: 2.06 µM | TGI [55]: 4.49 µM | GI50 [56]: 2.66 µM | TGI [56]: 6.73 µM | GI50 [57]: 2.72 µM | TGI [57]: 10.7 µM | GI50 [58]: 12.1 µM | TGI [58]: 24.5 µM
